Measured values reported in ChEMBL document CHEMBL1143277, “Submicromolar phosphinic inhibitors of Escherichia coli aspartate transcarbamoylase” (Bioorg Med Chem Lett, 2009).
The source made the active and inactive calls. No cut-off for these calls is given here.

Key:
Escherichia coli = assay: Competitive inhibition of Escherichia coli pEK17/EK1104 ATCase catalytic subunit assessed as formation of N-carbamoyl-L-aspartate by colorimetric assay
[1] = Inhibition of Escherichia coli pEK17/EK1104 ATCase catalytic subunit assessed as formation of N-carbamoyl-L-aspartate by colorimetric assay relative to carbamyl phosphate

Structure (SMILES) | Activity (Escherichia coli) | Ki [1] [nM]
O=C(O)C[C@H](NC(=O)C[PH](=O)O)C(=O)O | Active | 417
O=C(O)C[C@H](NC(=O)CP(=O)(O)CO)C(=O)O | Active | 193
O=C(O)C[C@H](NC(=O)CP(=O)(O)O)C(=O)O [PALA] | Active | 16
